Tests used:
[1] = system: Phytophthora infestans; test: whole plant or invertebrate; type: in vivo; settings: 72 h, read-out: efficacy
[2] = system: Sphaerotheca fuliginea; test: Sphaerotheca test (cucumber)/preventive; type: in vivo; settings: Podosphaera fuliginea, 168 h, 500 ppm of active ingredient, preventive, evaluated 7 days after inoculation, 0% = untreated control, 100% = no disease, read-out: efficacy
Description: (§1) Sphaerotheca Test (Cucumber)/Preventive Solvent: 49 parts by weight of N,N-Dimethylformamide Emulsifier: 1 part by weight of Alkylarylpolyglycolether To produce a suitable preparation of active compound, 1 part by weight of active compound is mixed with the stated amounts of solvent and emulsifier, and the concentrate is diluted with water to the desired concentration. To test for preventive activity, young plants are sprayed with the preparation of active compound at the stated rate of application. One day after this treatment, the plants are inoculated with an aqueous spore suspension of Sphaerotheca fuliginea.

[3] = system: Pyrenophora teres; test: Pyrenophora test (barley)/preventive; type: in vivo; settings: 500 ppm of active ingredient, preventive, evaluated 7-9 days after inoculation, read-out: efficacy
Description: as §1, with “Pyrenophora” for “Sphaerotheca”, “(Barley)/Preventive” for “(Cucumber)/Preventive”, “Pyrenophora teres.” for “Sphaerotheca fuliginea.”

[4] = system: Leptosphaeria nodorum; test: Leptosphaeria test (wheat)/preventive; type: in vivo; settings: Parastagonospora nodorum, 500 ppm of active ingredient, preventive, evaluated 7-9 days after inoculation, read-out: efficacy
Description: (§2) Leptosphaeria Test (Wheat)/Preventive Solvent: 49 parts by weight of N,N-Dimethylformamide Emulsifier: 1 part by weight of Alkylarylpolyglycolether To produce a suitable preparation of active compound, 1 part by weight of active compound is mixed with the stated amounts of solvent and emulsifier, and the concentrate is diluted with water to the desired concentration. To test for preventive activity, young plants are sprayed with a preparation of active compound at the stated rate of application. One day after this treatment, the plants are inoculated with an aqueous spore suspension of Leptosphaeria nodorum.

[5] = system: Plasmopara viticola; test: Plasmopara test (grapevines)/preventive; type: in vivo; settings: 100 ppm of active ingredient, preventive, evaluated 6 days after inoculation
Description: Plasmopara Test (Grapevines)/Preventive Solvent: 24.5 parts by weight of acetone • 24.5 parts by weight of dimethylacetamide Emulsifier: 1 part by weight of alkylaryl polyglycol ether To produce a suitable preparation of active compound, 1 part by weight of active compound is mixed with the stated amounts of solvent and emulsifier, and the concentrate is diluted with water to the desired concentration. To test for preventive activity, young plants are sprayed with the preparation of active compound at the stated rate of application. […] The plants are then misted and placed for 1 day in an incubation cabinet.

[6] = system: Septoria tritici; test: Septoria tritici-test (wheat)/preventive; type: in vivo; settings: 500 ppm of active ingredient, preventive, evaluated 21 days after inoculation
Description: Septoria tritici-Test (Wheat)/Preventive Solvent: 49 parts by weight of n,n-dimethylacetamid Emulsifier: 1 part by weight of alkylaryl polyglycol ether To produce a suitable preparation of active compound, 1 part by weight of active compound or active compound combination is mixed with the stated amounts of solvent and emulsifier, and the concentrate is diluted with water to the desired concentration. To test for preventive activity, young plants are sprayed with the preparation of active compound or active compound combination at the stated rate of application. After the spray coating has been dried, the plants are sprayed with a spore suspension of Septoria tritici.

[7] = system: Pyricularia oryzae; test: whole plant or invertebrate; type: in vivo; settings: 168 h, read-out: efficacy
[8] = system: Botrytis cinerea; test: Botrytis test (beans)/preventive; type: in vivo; settings: 48 h, 100 ppm of active ingredient, preventive, size of lesions evaluated 2 days after inoculation, read-out: efficacy
Description: Botrytis Test (Beans)/Preventive Solvent: 24.5 parts by weight of acetone • 24.5 parts by weight of dimethylacetamide Emulsifier: 1 part by weight of alkylaryl polyglycol ether To produce a suitable preparation of active compound, 1 part by weight of active compound is mixed with the stated amounts of solvent and emulsifier, and the concentrate is diluted with water to the desired concentration. To test for preventive activity, young plants are sprayed with the preparation of active compound. After the spray coating has dried on, 2 small pieces of agar covered with growth of Botrytis cinerea are placed on each leaf.

[9] = system: Puccinia recondita; test: Puccinia test (wheat)/preventive; type: in vivo; settings: 500 ppm of active ingredient, preventive, evaluated 7-9 days after inoculation, read-out: efficacy
Description: as §2, with “Puccinia Test (Wheat)/Preventive” for “Leptosphaeria Test (Wheat)/Preventive”, “sprayed with the preparation of” for “sprayed with a preparation of”, “suspension of Puccinia recondita.” for “suspension of Leptosphaeria nodorum.”

[10] = system: Alternaria solani; test: Alternaria test (tomato)/preventive; type: in vivo; settings: 168 h, 500 ppm of active ingredient, preventive, evaluated 7 days after inoculation, read-out: efficacy
Description: as §1, with “Alternaria” for “Sphaerotheca”, “(Tomato)/Preventive” for “(Cucumber)/Preventive”, “Alternaria solani. […] Then the plants are placed in an incubation cabinet at approximately 20° C. and a relative atmospheric humidity of 96%.” for “Sphaerotheca fuliginea.”

[11] = system: Fusarium graminearum; test: whole plant or invertebrate; type: in vivo; settings: in Hordeum vulgare, 120 h, read-out: efficacy
[12] = system: Venturia inaequalis; test: Venturia test (apples)/preventive; type: in vivo; settings: 100 ppm of active ingredient, preventive, evaluated 10 days after inoculation
Description: Venturia Test (Apples)/Preventive Solvent: 24.5 parts by weight of acetone • 24.5 parts by weight of dimethylacetamide Emulsifier: 1 part by weight of alkylaryl polyglycol ether To produce a suitable preparation of active compound, 1 part by weight of active compound is mixed with the stated amounts of solvent and emulsifier, and the concentrate is diluted with water to the desired concentration. To test for preventive activity, young plants are sprayed with the preparation of active compound at the stated rate of application.

[13] = determination of the log P values by HPLC on a reverse phase column (C18), EEC-Directive 79/831 Annex V.A8; type: physicochemical
Procedure, shortened: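 Log P determined per EEC-Directive 79/831 Annex V.A8 by reverse-phase (C18) HPLC (methods A, B) or UPLC (method C), with mass detection.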

[14] = system: Fusarium nivale (var. majus); test: Fusarium nivale (var. majus)-test (wheat)/preventive; type: in vivo; settings: Microdochium nivale, 120 h, 500 ppm of active ingredient, preventive, evaluated 5 days after inoculation, read-out: efficacy
Description: Fusarium nivale (Var. Majus)-Test (Wheat)/Preventive Solvent: 49 parts by weight of n,n-dimethylacetamid Emulsifier: 1 part by weight of alkylaryl polyglycol ether To produce a suitable preparation of active compound, 1 part by weight of active compound or active compound combination is mixed with the stated amounts of solvent and emulsifier, and the concentrate is diluted with water to the desired concentration. To test for preventive activity, young plants are sprayed with the preparation of active compound or active compound combination at the stated rate of application. After the spray coating has been dried, the plants are slightly injured by using a sandblast and afterwards they are sprayed with a conidia suspension of Fusarium nivale (var. majus).

| Structure (SMILES) | pest or weed control at 100 ppm [1] [%] | pest or weed control at 500 ppm [2] [%] | pest or weed control at 500 ppm [3] [%] | pest or weed control at 500 ppm [4] [%] | efficacy [5] [%] | efficacy [6] [%] | pest or weed control at 500 ppm [7] [%] | pest or weed control at 100 ppm [8] [%] | pest or weed control at 500 ppm [9] [%] | pest or weed control at 500 ppm [10] [%] | pest or weed control at 500 ppm [11] [%] | efficacy [12] [%] | chromatographic logP [13] | pest or weed control at 500 ppm [14] [%] |
| --- | --- | --- | --- | --- | --- | --- | --- | --- | --- | --- | --- | --- | --- | --- |
| CCC(=O)N(C(C)=O)c1cc(-c2c(-c3ccc(F)cc3)nn3c2CCC3C)ccn1 (stereo not shown) [Example 6, N-acetyl-N-{4-[2-(4-fluorophenyl)-6-methyl-5,6-dihydro-4H-pyrrolo[1,2-b]pyrazol-3-yl]pyridin-2-yl}propanamide] | 91 | 95 | 100 | 95 | 94 | 86 | 90 | 89 | 100 | 70 | 83 | 98 | 2.78 | 100 |
| CC(=O)N(C(C)=O)c1cc(-c2c(-c3ccc(F)cc3)nn3c2CCCC3)ccn1 [Example 1, N-acetyl-N-{4-[2-(4-fluorophenyl)-4,5,6,7-tetrahydropyrazolo[1,5-a]pyridin-3-yl]pyridin-2-yl}acetamide] | 94 | 94 | 95 | 95 | 75 | 100 | 80 | 88 | 100 | 100 | 100 |  | 2.42 | 100 |
| CCC(=O)N(C(C)=O)c1cc(-c2c(-c3ccc(F)cc3)nn3c2CCC3)ccn1 [Example 5, N-acetyl-N-{4-[2-(4-fluorophenyl)-5,6-dihydro-4H-pyrrolo[1,2-b]pyrazol-3-yl]pyridin-2-yl}propanamide] | 83 | 100 | 100 | 95 | 94 | 86 | 95 | 100 | 100 | 90 | 92 | 99 | 2.43 | 100 |
| CCC(=O)N(C(=O)CC)c1cc(-c2c(-c3ccc(F)cc3)nn3c2CCC3)ccn1 [Example 7, N-{4-[2-(4-fluorophenyl)-5,6-dihydro-4H-pyrrolo[1,2-b]pyrazol-3-yl]pyridin-2-yl}-N-propionylpropanamide] | 95 | 98 | 95 | 90 | 100 | 86 | 70 | 99 | 95 | 90 | 92 | 100 | 2.81 | 100 |
